Entries after “also recorded” stand apart in the source; their conditions may differ. No end group written: not given here.
How the values were obtained:
[1] = test system: bovine pancreatic trypsin; experiment: Trypsin inhibitory assay; type: biochemical; settings: substrate L-BAPNA, 50 mM Tris/20 mM CaCl2 pH 8.2, 10 min, room temperature; four concentrations, initial 750 µM or 1.5 mM with 10-fold dilutions; triplicate; absorbance 410 nm; positive control MCoTI-II
Description: A stock solution of bovine pancreatic trypsin at 4.5 mg/mL in 1 mM HCl was prepared and stored on ice. Firstly, the trypsin stock was diluted to 0.45 mg/mL in 50 mM Tris/20 mM CaCl2 (pH 8.2) buffer. Next, the substrate was prepared by dissolving 0.435 mg/mL L-BAPNA (Nα-benzoyl-L-arginine 4-nitroanilide hydrochloride, Sigma-Aldrich) in 1% DMSO/99% 50 mM Tris/20 mM CaCl2 buffer (pH 8.2). Four different peptide concentrations were tested starting from initial concentrations of 750 µM or 1.5 mM with 10-fold dilutions. The reaction mixture was prepared by dispensing 15 µL of 50 mM Tris/20 mM CaCl2 (pH 8.2) buffer, 5 µL of 0.45 mg/mL trypsin and followed by 5 µL of the tested peptide into each well of a 96-well plate in triplicate. A control without the tested peptide was used to measure 100% trypsin activity. Subsequently, 125 µL of 0.435 mg/mL substrate was added to the plate and incubated for 10 min at room temperature. The reaction was stopped by adding 25 µL of 30% acetic acid. Absorbance was measured at 410 nm using a Powerwave XS plate reader (Bio-Tek). Trypsin inhibition was calculated from the absorbance in the presence of the tested peptide as a percent of absorbance of the uninhibited trypsin [39]. MCoTI-II was used as the positive control.

[2] = test system: Plasmodium falciparum (FCR-3 strain); experiment: Antimalarial assay; type: cell-based; settings: FCR-3 strain in human RBCs (type A), 5% hematocrit, 0.3% parasitemia, GIT medium, 37°C, 72 h; various concentrations, duplicate; Giemsa smears, microscopy; positive control artemisinin
Description: Plasmodium falciparum (FCR-3 strain) was maintained in vitro at 37°C in GIT medium containing human red blood cells (RBCs, type A) at 5% hematocrit in 24-well plates which were put in a CO2 incubator (5% CO2, 5% O2 and 90% N2) at 37°C [41]. Peptides were added in duplicate in distilled water or 0.25 M phosphoric acid and prepared in various concentrations. 10 µL of this solution was added to individual cells of the plates. Erythrocytes with 0.3% parasitemia were added to the cells of the above plates containing 990 µL of culture medium. The plates were incubated at 37°C for 72 h in the CO2 incubator. To test the antimalarial activity of peptides, thin smears were prepared from each culture and stained with Giemsa. Erythrocytes were examined under microscopy. Artemisinin was used as the positive control. Drug-free control cultures were assayed simultaneously, [43].

[3] = test system: HFF-1; experiment: Cytotoxicity MTT assay, HFF-1; type: cell-based; settings: HFF-1 non-cancerous human cells; 0.1 µM to 100 µM, duplicate, 5 h, 37°C; MTT 1 h, absorbance 600 nm; positive control Taxol
Description: (§1) The cytotoxicity of the peptides on breast cancer cells (MDA-MB-231) and non-cancerous human cells (HFF-1) was measured using a standard MTT (3-(4,5-dimethylthiazol-2-yl)-2,5-diphenyltetrazolium bromide, Sigma-Aldrich) assay. Cells were seeded in a 96-well flat-bottomed plate at a concentration of 5.0×10^4 cells/cm^2 in DMEM in 10% FBS, or DMEM in 15% FBS, and incubated at 37°C in an atmosphere of 5% CO2 in air. After 24 h, peptides were added in duplicate at the concentrations ranging from 0.1 µM to 100 µM to make up a final volume of 100 µL in each well and then incubated for 5 h. MTT solution (10 µL) in PBS (5 mg/mL) was added to each well and maintained for 1 h. Media was removed, and formazan crystals were resuspended in 100 µL of DMSO. Absorbance was then read at 600 nm. Taxol was used as the positive control.

[4] = test system: MDA-MB-231; experiment: Cytotoxicity MTT assay, MDA-MB-231; type: cell-based; settings: MDA-MB-231 human breast cancer cells; 0.1 µM to 100 µM, duplicate, 5 h, 37°C; MTT 1 h, absorbance 600 nm; positive control Taxol
Description: as §1

Q: For “GCAGKACNLLGLTCDAGCFCRPDGVGIVAGVCV (disulfide (positions not given here)) [MCh-2, PDB 2M2R]”, which trypsin inhibitory activity [1] is on record?
A: not active; also recorded: not trypsin inhibitors

Q: And the antimalarial activity [2]?
A: not active

Q: What about the cytotoxic activity [3] of the same sequence?
A: not active

Q: What about the cytotoxic activity [4] of the same sequence?
A: not active

Q: With “GCAGKSCNILGSDPCDAGCFCLPVGIVAGVCV (disulfide (positions not given here)) [MCh-1, PDB 2M2Q]” as the sequence, how does the trypsin inhibitory activity [1] read?
A: not active; also recorded: not trypsin inhibitors

Q: And the antimalarial activity [2]?
A: not active

Q: What about the cytotoxic activity [3] of the same sequence?
A: not active

Q: And the cytotoxic activity [4]?
A: not active
